# Earlier results, collected in article PMC10656230, “Disruption of the productive encounter complex results in dysregulation of DIAPH1 activity” (The Journal of Biological Chemistry, 2023).
# Assays:
# DID = conditions: DAD without RRKR motif vs
# Text: Chemical shifts (δ) and cross peak intensities (I) were monitored by using heteronuclear single–quantum coherence (^1H-^15N HSQC) NMR spectroscopy ([38]) (Fig. S1A). […] Negligible perturbations occurred beyond a 1:1 mole ratio, indicating a 1:1 stoichiometry for the complex. […] H ...
# DID E273K = conditions: DID mutation E273K, no 2- to 3-fold decrease
# Text: (§1) Our findings identify E326 and E327 as critical for binding (Figs. 3D, 4 and S1). The E326 and E327 acidic patch is located greater than 30 Å away from the Rho GTPase binding site and represents a new surface for DIAPH1 regulation (Fig. S4B) ([25]). Interruption of the electrostatic interaction between the basic RRKR motif an ...
# DID R278E = conditions: DID mutation R278E, no 2- to 3-fold decrease
# Text: as §1
sequence,measurement,setting,value
DETGVMDSLLEALQSGAAFRRKRGPRQAN [DAD],decrease in DID-DAD binding affinity on removal of the RRKR motif of DAD,DID,5 fold
same,decrease in DID-DAD binding affinity,DID E273K,did not
same,decrease in DID-DAD binding affinity,DID R278E,did not
